The term IC50 denotes the point on the concentration scale where inhibition reaches its midpoint.

13 molecules from patent publication US8580829B2 (Boehringer Ingelheim International GmbH, priority 2010, dated 2013) can be followed below.

In test [1] the target is T1, recombinant human FLAP protein (Homo sapiens, UniProt P20292).
T1 construct: made in house; host or cells: Sf9 insect cells (100,000 x g membrane fraction)
T1 sequence (P20292 1-161): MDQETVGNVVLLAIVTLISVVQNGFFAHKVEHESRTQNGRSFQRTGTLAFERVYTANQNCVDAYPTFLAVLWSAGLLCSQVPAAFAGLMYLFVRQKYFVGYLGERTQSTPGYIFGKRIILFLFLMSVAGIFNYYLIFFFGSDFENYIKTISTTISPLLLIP
Briefly: FLAP binding assay (Scintillation Proximity Assay, displacement of [125I]L-691,831). Particulars: recombinant human FLAP membranes, [125I]L-691,831 probe; read-out: FLAP SPA IC50. The procedure, abridged:
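Membranes came from Sf9 insect cells expressing recombinant human FLAP, collected as the 100,000×g pellet in Tris pH 7.5/MgCl2/EDTA buffer. 5 μg membrane protein was coupled to WGA SPA beads for 1 h.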
For orientation: In a scintillation proximity assay essentially only radioactivity close to the scintillant gives light.

Test [2] has as its system synthesis of LTB4 in human whole blood. Kind of test: human whole blood LTB4 production inhibition assay. The format is cell-based. Particulars: Homo sapiens, heparinized human whole blood, calcimycin 20 μM; read-out: hWB LTB4 IC50. The procedure, abridged: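 Readout: plasma LTB4 by antibody-based HTRF. Compound added to heparinized human whole blood, 15 min 37° C; calcimycin 20 μM final (PBS pH 7.4), 30 min 37° C; spun 1500×g 5 min, plasma taken.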

With `Nc1ncc(-c2ccc(C3(c4noc(-c5cccnc5)n4)CCC3)cc2)cn1` [Example 143, 5-{4-[1-(5-pyridin-3-yl-1,2,4-oxadiazol-3-yl)-cyclobutyl]-phenyl}-pyrimidin-2-ylamine], the IC50 in test [1] came to 2.2 nM; in test [2], 250 nM.

`Nc1ncc(-c2ccc(C3(c4noc(-c5ccccc5)n4)CCC3)cc2)cn1` [Example 144, 5-{4-[1-(5-Phenyl-1,2,4-oxadiazol-3-yl)-cyclobutyl]-phenyl}-pyrimidin-2-ylamine]: the IC50 in test [1] came to 1.4 nM; in test [2], 470 nM.

As for `Nc1ncc(-c2ccc(C3(c4noc(-c5ccccn5)n4)CCOCC3)cc2)cn1` [Example 145, 5-{4-[4-(5-pyridin-2-yl-1,2,4-oxadiazol-3-yl)-tetrahydro-pyran-4-yl]-phenyl}-pyrimidin-2-ylamine], the IC50 in test [1] was 78 nM; in test [2], over 5000 nM.

With `Nc1ncc(-c2ccc(C3(c4noc(-c5cccnc5)n4)CCOCC3)cc2)cn1` [Example 146, 5-{4-[4-(5-Pyridin-3-yl-1,2,4-oxadiazol-3-yl)-tetrahydro-pyran-4-yl]-phenyl}-pyrimidin-2-ylamine], the half-maximal inhibitory concentration (IC50) in test [1] stood at 27 nM; in test [2], 840 nM.

Take `Nc1ncc(-c2ccc(C3(c4noc(-c5ccncc5)n4)CCOCC3)cc2)cn1` [Example 147, 5-{4-[4-(5-Pyridin-4-yl-1,2,4-oxadiazol-3-yl)-tetrahydro-pyran-4-yl]-phenyl}-pyrimidin-2-ylamine]: the half-maximal inhibitory concentration (IC50) in test [1] turned out to be 33 nM; in test [2], 1700 nM.

`Cc1cc(-c2nc(C3(c4ccc(-c5cnc(N)nc5)cc4)CCOCC3)no2)n(C)n1` [Example 148, 5-(4-{4-[5-(2,5-Dimethyl-2H-pyrazol-3-yl)-1,2,4-oxadiazol-3-yl]-tetrahydro-pyran-4-yl}-phenyl)-pyrimidin-2-ylamine]: the figures for the half-inhibitory concentration (IC50) in test [1] and in test [2] were 46 nM and 3300 nM, respectively.

For the molecule `Nc1ncc(-c2ccc(C3(c4noc(-c5ccccc5)n4)CCOCC3)cc2)cn1` [Example 149, 5-{4-[4-(5-Phenyl-1,2,4-oxadiazol-3-yl)-tetrahydro-pyran-yl]-phenyl}-pyrimidin-2-ylamine], the concentration for half-maximal inhibition (IC50) in test [1] was 15 nM; in test [2], over 5000 nM.

Regarding `Nc1ncc(-c2ccc(C3(c4noc(Cc5ccccc5)n4)CCOCC3)cc2)cn1` [Example 150, 5-{4-[4-(5-Benzyl-1,2,4-oxadiazol-3-yl)-tetrahydro-pyran-4-yl]-phenyl}-pyrimidin-2-ylamine], the results for the IC50 in test [1] and in test [2] were 180 nM and over 5000 nM, respectively.

Regarding `Nc1ncc(-c2ccc(C3(c4noc(COCc5ccccc5)n4)CCOCC3)cc2)cn1` [Example 151, 5-{4-[4-(5-Benzyloxymethyl-1,2,4-oxadiazol-3-yl)-tetrahydro-pyran-4-yl]-phenyl}-pyrimidin-2-ylamine], the IC50 in test [1] was 210 nM; in test [2], over 5000 nM.

Turning to `Cc1ccc(-c2nc(C3(c4ccc(-c5cnc(N)nc5)cc4)CCC3)no2)cn1` [Example 152, 5-(4-{1-[5-(6-Methyl-pyridin-3-yl)-1,2,4-oxadiazol-3-yl]-cyclobutyl}-phenyl)-pyrimidin-2-ylamine], the half-maximal inhibitory concentration (IC50) amounted to 3.5 nM in test [1] and 210 nM in test [2].

For the molecule `Nc1ncc(-c2ccc(C3(c4noc(-c5c[nH]cn5)n4)CCC3)cc2)cn1` [Example 153, 5-(4-{1-[5-(1H-Imidazol-4-yl)-1,2,4-oxadiazol-3-yl]-cyclobutyl}-phenyl)-pyrimidin-2-ylamine], the IC50 in test [1] is 2.5 nM; in test [2] it was 270 nM.

On to `Cc1ccc(-c2nc(C3(c4ccc(-c5cnc(N)nc5)cc4)CCCCC3)no2)cn1` [Example 154, 5-(4-{1-[5-(6-Methyl-pyridin-3-yl)-1,2,4-oxadiazol-3-yl]-cyclohexyl}-phenyl)-pyrimidin-2-ylamine], for which the figures for the 50% inhibitory concentration (IC50) in test [1] and in test [2] were 1.7 nM and 810 nM, respectively.

Turning to `Cc1ccc(-c2nc(C3(c4ccc(-c5cnc(N)nc5)cc4)CCCC3)no2)cn1` [Example 155, 5-(4-{1-[5-(6-Methyl-pyridin-3-yl)-1,2,4-oxadiazol-3-yl]-cyclopentyl}-phenyl)-pyrimidin-2-ylamine], the half-maximal inhibitory concentration (IC50) in test [1] came to 2.8 nM; in test [2] it was 400 nM.
